In patent US9708336B2, “Metallo-beta-lactamase inhibitors” (priority 2014, dated 2017):
pIC50: −log10 of the molar value. Read-outs that look alike come from different tables or passages of the source.

What was measured:
[1] = target: VIM-1 (Pseudomonas aeruginosa (strain ATCC 15692 / DSM 22644 / CIP 104116 / JCM 14847 / LMG 12228 / 1C / PRS 101 / PAO1), UniProt A0A0F7KYQ8); test: Enzyme activity: determination of IC50, fluorescence assay with CCF2-FA substrate (VIM-1); assay type: biochemical
[2] = target: IMP-1 (Serratia marcescens, UniProt P52699); test: biochemical; assay type: biochemical; conditions: read-out: IMP-1 IC50
[3] = target: NDM-1 (Klebsiella pneumoniae, UniProt C7C422); test: biochemical; assay type: biochemical; conditions: read-out: NDM-1 IC50
[4] = tested on: Klebsiella pneumoniae expressing VIM-1 (IHMA599644); test: Antibiotic potentiation activity: synergistic concentration (MITC95) with imipenem, OD600 growth; assay type: cell-based; conditions: for Klebsiella pneumoniae expressing VIM-1 (IHMA 599644) MITC95: concentration giving 95% inhibition of bacterial growth
Procedure, shortened: (§1)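 Clinical MBL-producing strains (E. coli NDM-1, S. marcescens IMP-1, K. pneumoniae VIM-1) from overnight plates were diluted 1:100 into 1.1×CAMHB. Compound was tested with imipenem at 4 μg/ml (optionally 1 μg/ml) or without it. After 22–24 h at 35 °C, growth was read as OD600.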

[5] = tested on: Serratia marcescens expressing IMP-1 (CL5741); test: as above; assay type: cell-based; conditions: for Serratia marcescens expressing IMP-1 (CL5741) MITC95: concentration giving 95% inhibition of bacterial growth
Procedure, shortened: as §1

[6] = tested on: Escherichia coli expressing NDM-1 (CLB30016); test: as above; assay type: cell-based; conditions: for Escherichia coli expressing NDM-1 (CLB 30016) MITC95: concentration giving 95% inhibition of bacterial growth
Procedure, shortened: as §1

[7] = VIM-1 IC50, fluorescence assay with CCF2-FA substrate
[8] = fluorescence assay with CCF2-FA substrate
[9] = fluorescence assay with CCF2-FA substrate, read-out: VIM-1 IC50
[10] = VIM-1 enzyme, CCF2-FA substrate, read-out: VIM-1 IC50
[11] = IMP-1 enzyme, CCF2-FA substrate
[12] = NDM-1 enzyme, CCF2-FA substrate
[13] = Klebsiella pneumoniae IHMA599644 (VIM-1), 95% growth inhibition
[14] = Serratia marcescens CL5741 (IMP-1), 95% growth inhibition
[15] = (CLB30016, NDM-1), 95% growth inhibition
[16] = VIM-1 enzyme, CCF2-FA fluorescence assay, read-out: VIM-1 IC50
[17] = IMP-1 enzyme, CCF2-FA fluorescence assay
[18] = NDM-1 enzyme, CCF2-FA fluorescence assay
[19] = Klebsiella pneumoniae expressing VIM-1 (IHMA599644), 95% growth inhibition
[20] = Serratia marcescens expressing IMP-1 (CL5741), 95% growth inhibition
[21] = Escherichia coli expressing NDM-1 (CLB30016), 95% growth inhibition
[22] = IHMA599644 (VIM-1), 95% inhibition of bacterial growth
[23] = CL5741 (IMP-1), 95% inhibition of bacterial growth
[24] = CLB30016 (NDM-1), 95% inhibition of bacterial growth

Sequence of NDM-1 (C7C422 whole entry, looked up, species assumed): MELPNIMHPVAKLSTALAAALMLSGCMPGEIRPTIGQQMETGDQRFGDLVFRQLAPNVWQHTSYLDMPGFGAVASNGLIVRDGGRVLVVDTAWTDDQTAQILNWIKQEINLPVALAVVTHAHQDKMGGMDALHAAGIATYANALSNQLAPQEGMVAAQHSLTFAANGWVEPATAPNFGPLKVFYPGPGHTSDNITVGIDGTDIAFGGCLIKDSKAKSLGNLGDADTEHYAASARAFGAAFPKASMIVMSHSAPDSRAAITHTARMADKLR
Sequence of IMP-1 (P52699 whole entry, looked up): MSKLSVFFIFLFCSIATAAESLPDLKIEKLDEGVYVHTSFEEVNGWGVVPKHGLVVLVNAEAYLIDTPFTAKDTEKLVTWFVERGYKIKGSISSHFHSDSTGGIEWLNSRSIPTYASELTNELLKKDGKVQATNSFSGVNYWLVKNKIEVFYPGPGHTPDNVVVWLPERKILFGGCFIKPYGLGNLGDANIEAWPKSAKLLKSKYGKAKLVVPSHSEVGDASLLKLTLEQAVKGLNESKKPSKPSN

| Structure (SMILES) | pIC50 [2, 8] | pIC50 [3, 8] | pIC50 [1, 9] | pIC50 [1, 10] | pIC50 [2, 11] | pIC50 [3, 12] | Klebsiella pneumoniae MITC95 [4, 13] | Serratia marcescens MITC95 [5, 14] | Escherichia coli MITC95 [6, 15] | Klebsiella pneumoniae MITC95 [4, 22] | Serratia marcescens MITC95 [5, 23] | Escherichia coli MITC95 [6, 24] | also measured |
| --- | --- | --- | --- | --- | --- | --- | --- | --- | --- | --- | --- | --- | --- |
| NS(=O)(=O)c1cccc(CC2CCCCC2)c1-c1nnn[nH]1 [Example 153, 3-(cyclohexylmethyl)-2-(1H-tetrazol-5-yl)benzenesulfonamide] | 7.15 | 8.08 |  |  |  |  |  |  |  |  |  |  | pIC50 [1, 7]: 6.60; Klebsiella pneumoniae expressing VIM-1 (IHMA 599644) MITC95 [4]: >200 µM; Serratia marcescens expressing IMP-1 (CL5741) MITC95 [5]: 2.344 µM; Escherichia coli expressing NDM-1 (CLB 30016) MITC95 [6]: 4.688 µM |
| NS(=O)(=O)c1cccc(C2CC2)c1-c1nnn[nH]1 [Example 157, 3-cyclopropyl-2-(1H-tetrazol-5-yl)benzenesulfonamide] | 6.25 | 7.54 | 5.98 |  |  |  |  |  |  |  |  |  | Klebsiella pneumoniae expressing VIM-1 (IHMA 599644) MITC95 [4]: 50 µM; Serratia marcescens expressing IMP-1 (CL5741) MITC95 [5]: 6.25 µM; Escherichia coli expressing NDM-1 (CLB 30016) MITC95 [6]: 0.3906 µM |
| Nc1ncc2c(-c3ccc(C(F)(F)F)c(S(N)(=O)=O)c3-c3nn[nH]n3)cccc2n1 [Example 556, 3-(2-aminoquinazolin-5-yl)-2-(2H-tetrazol-5-yl)-6-(trifluoromethyl)benzenesulfonamide] |  |  |  | 9.91 | 8.53 | 9.90 | 12.5 µM | 12.5 µM | 25 µM |  |  |  |  |
| NS(=O)(=O)c1c(C(F)(F)F)ccc([C@H]2CC[C@H](NC3CC[C@@H]4CNCC[C@H]4C3)CC2)c1-c1nnn[nH]1 (stereo partly drawn) [Example 684, 3-{4-[(4aS,8aS)-decahydroisoquinolin-6-ylamino]cyclohexyl}-2-(1H-tetrazol-5-yl)-6-(trifluoromethyl)benzene sulfonamide] |  |  |  | 7.97 | 7.12 | 7.41 | 12.5 µM | 6.25 µM | 3.125 µM |  |  |  |  |
| NS(=O)(=O)c1c(C(F)(F)F)ccc([C@H]2CC[C@@H](O)CC2)c1-c1nnn[nH]1 [Example 495] |  |  |  | 7.66 | 8.37 | 8.73 | 25 µM | 0.5859 µM | 2.344 µM |  |  |  |  |
| Nc1nc2c(-c3ccc(CC4CNC4)c(S(N)(=O)=O)c3-c3nn[nH]n3)cccc2s1 [Example 545, 3-(2-aminobenzo[d]thiazol-4-yl)-6-(azetidin-3-ylmethyl)-2-(2H-tetrazol-5-yl)benzenesulfonamide] |  |  |  |  | 7.66 | 8.56 | 3.125 µM | 3.125 µM | 0.7813 µM |  |  |  | pIC50 ([1]; VIM-1 IC50, VIM-1 enzyme, CCF2-FA substrate): 8.11 |
| NS(=O)(=O)c1c(Br)ccc(-c2ccc3c(c2)CNC3)c1-c1nn[nH]n1 [Example 272, 6-bromo-3-(isoindolin-5-yl)-2-(2H-tetrazol-5-yl)benzenesulfonamide] |  |  |  |  |  |  |  |  |  |  |  |  | pIC50 [1, 16]: 8.26; pIC50 [2, 17]: 7.31; pIC50 [3, 18]: 8.14; Klebsiella pneumoniae MITC95 [4, 19]: 0.7813 µM; Serratia marcescens MITC95 [5, 20]: 1.563 µM; Escherichia coli MITC95 [6, 21]: 0.7813 µM |
| CC1(O)CCN(c2ccc(C(F)(F)F)c(S(N)(=O)=O)c2-c2nnn[nH]2)CC1 [Example 653, 3-(4-hydroxy-4-methypiperidin-1-yl)-2-(1H-tetrazol-5-yl)-6-(trifluoromethyl)benzenesulfonamide] |  |  |  | 8.35 | 8.32 | 8.55 | 6.25 µM | 0.3906 µM | 1.563 µM |  |  |  |  |
| Nc1nccc2cc(-c3ccc(C(F)(F)F)c(S(N)(=O)=O)c3-c3nnn[nH]3)ccc12 [Example 751, 3-(1-aminoisoquinolin-6-yl)-2-(1H-tetrazol-5-yl)-6-(trifluoromethyl)benzenesulfon-amide] | 8.25 | 9.02 | 9.97 |  |  |  |  |  |  | 3.125 µM | 3.125 µM | 0.7813 µM |  |
| NC1(CN2CC(c3ccc(-c4ccc(C(F)(F)F)c(S(N)(=O)=O)c4-c4nnn[nH]4)cc3)C2)CC1 [Example 806, 4′-{1-[(1-aminocyclopropyl)methyl]azetidin-3-yl}-2-(1H-tetrazol-5-yl)-4-(trifluoromethyl)biphenyl-3-sulfonamide] | 8.12 | 8.33 | 8.30 |  |  |  |  |  |  | 12.5 µM | 6.25 µM | 6.25 µM |  |
| NC1CCC(N2CC(c3ccc(-c4ccc(C(F)(F)F)c(S(N)(=O)=O)c4-c4nnn[nH]4)cc3)C2)C1 (stereo not drawn) [Example 808, 4′-[1-(3-aminocyclopentyl)azetidin-3-yl]-2-(1H-tetrazol-5-yl)-4-(trifluoromethyl)biphenyl-3-sulfonamide] | 8.07 | 8.45 | 7.60 |  |  |  |  |  |  | 25 µM | 3.125 µM | 1.563 µM |  |
| NCCNC1CCC(c2ccc(C(F)(F)F)c(S(N)(=O)=O)c2-c2nnn[nH]2)CC1 (stereo not drawn) [Example 827, 3-[4-(trans-2-aminoethylamino)cyclohexyl]-2-(1H-tetrazol-5-yl)-6-(trifluoromethyl)benzenesulfonamide] | 7.65 | 8.24 |  |  |  |  |  |  |  | 1.172 µM | 0.3906 µM | 0.3906 µM | pIC50 [1, 7]: 8.59 |
| Nc1ccc(-c2ccc(CC[C@H]3CC[C@@H](N)CC3)c(S(N)(=O)=O)c2-c2nnn[nH]2)cn1 [Example 578, 6-(2-((1s,4r)-4-aminocyclohexyl)ethyl)-3-(6-aminopyridin-3-yl)-2-(1H-tetrazol-5-yl)benzenesulfonamide] |  |  |  | 7.95 | 7.33 | 8.73 | 50 µM | 12.5 µM | 3.125 µM |  |  |  |  |
| NS(=O)(=O)c1c(CC2(F)CCNC2)ccc(-c2ccc(C3CCNCC3)cc2)c1-c1nn[nH]n1 (stereo not drawn) [Example 467, 4-((3-fluoropyrrolidin-3-yl)methyl)-4′-(piperidin-4-yl)-2-(2H-tetrazol-5-yl)-[1,1′-biphenyl]-3-sulfonamide] |  |  |  |  |  |  |  |  |  |  |  |  | pIC50 [1, 16]: 8.32; pIC50 [2, 17]: 7.46; pIC50 [3, 18]: 7.99; Klebsiella pneumoniae MITC95 [4, 19]: 1.563 µM; Serratia marcescens MITC95 [5, 20]: 1.563 µM; Escherichia coli MITC95 [6, 21]: 0.7813 µM |
| CCN1CCC(NCc2ccc(-c3cccc(S(N)(=O)=O)c3-c3nnn[nH]3)cc2)CC1 [Example 352, 4′-{[(1-ethylpiperidin-4-yl)amino]methyl}-2-(1H-tetrazol-5-yl)biphenyl-3-sulfonamide] |  |  |  |  |  |  |  |  |  |  |  |  | pIC50 [1, 16]: 6.04; pIC50 [2, 17]: 6.26; pIC50 [3, 18]: 7.42; Klebsiella pneumoniae MITC95 [4, 19]: >200 µM; Serratia marcescens MITC95 [5, 20]: 6.25 µM; Escherichia coli MITC95 [6, 21]: 1.563 µM |
| N[C@@H]1CN(c2ccc(C(F)(F)F)c(S(N)(=O)=O)c2-c2nnn[nH]2)CC12CC2 [Example 754, 3-[(7S)-7-amino-5-azaspiro[2.4]hept-5-yl]-2-(1H-tetrazol-5-yl)-6-(trifluoromethyl) benzenesulfonamide] | 6.06 | 6.22 | 8.11 |  |  |  |  |  |  | 12.5 µM | 50 µM | 25 µM |  |
